# In article PMC5225183, “Fingerprinting of neurotoxic compounds using a mouse embryonic stem cell dual luminescence reporter assay” (Archives of Toxicology, 2016):
# Tests used:
# [1] = tested on: mice; set-up: method as in https://www.spectrumchemical.com/MSDS/TCI-G0334.pdf; details: ref https://www.spectrumchemical.com/MSDS/TCI-G0334.pdf; cited from earlier work
# [2] = set-up: method as in Supko et al. [1995]; details: mouse, i.v.; ref Supko et al. [1995]; cited from earlier work
# [3] = tested on: Thy1-GFP transgenic rats; set-up: method as in Sun et al. [2012]; details: ref Sun et al. [2012]; cited from earlier work
# [4] = tested on: plasma protein; assay: Plasma protein binding (plasma bound fraction); format: in vitro ADME; details: assumed, no specific indications found
# Method: The lipid content and albumin concentrations of the test media N2 and BHK medium were calculated on the basis of the available information provided by the suppliers (Fig. S2A). The data on rat plasma have been adopted from (Verwei et al. [2006]). The original references are (Barber et al. [1990]) for albumin and (DeJongh et al. [1997]) for lipids. Human plasma values were taken from (Gulden and Seibert [2003]). The original data on albumin are from (Lindup [1987]) and for lipids from (Patterson et al. [1988]). Total protein concentrations were calculated based on the assumption that the protein molar mass is similar to the one of albumin (66 kDa). […]
# (a) Developmental toxicity (DT)—inducing concentrations were extrapolated from the in vivo study reported in the document by the Australian Therapeutic Goods Administration (Australian Therapeutic Goods Administration [2014]). […] (c) The nominal in vitro concentrations equivalent to the concentration used in vivo were calculated using the value of total protein concentration instead of albumin concentration. […]
# (c) The nominal in vitro concentrations equivalent to the concentration used in vivo in rats and humans (Cmax and Cavg) were determined assuming only binding to the specific drug-binding proteins (albumin and/or α1-acid glycoprotein) (Fig. S2D).
structure (smiles),measurement,setting,value
COC1=C2C[C@@H](C)C[C@H](OC)[C@H](O)[C@@H](C)/C=C(\C)[C@H](OC(N)=O)[C@@H](OC)/C=C\C=C(/C)C(=O)NC(=CC1=O)C2=O [Geldanamycin],LD50,[1],1 mg/kg
same,initial volume of distribution,[2],0.16 L/kg
same,dose affecting nerve recovery / neurodifferentiation,[3],0.2 mg/kg/day
same,"fb,pl (plasma bound fraction)",[4],99%
